Measured values taken from DBAASP.
Converted amounts (≈) assume the structure as drawn. Each block holds one compound with its values, some of them ahead of it.

Legend:
Assay in all cases: ≥ marks a high value that may be exact or a test limit, other limits are often not marked, values filed in µg/mL are converted to µM
[1] = system: Listeria monocytogenes ATCC 35152
[2] = system: Pseudomonas aeruginosa ATCC 27853
[3] = system: Escherichia coli ATCC 25922
[4] = system: Staphylococcus aureus ATCC 25923
[5] = system: Klebsiella pneumoniae ATCC 13883
[6] = system: Erwinia amylovora PMV 6076
[7] = system: Pseudomonas syringae pv. syringae EPS 94
[8] = system: Xanthomonas campestris pv. Vesicatoria 2133-2
[9] = system: Streptococcus pyogenes ATCC 19615
[10] = system: Enterococcus faecalis ATCC 29212
[11] = system: Escherichia coli
[12] = system: Bacillus subtilis
[13] = system: Salmonella enterica subsp. enterica serovar Typhimurium ATCC 14028
[14] = system: Staphylococcus aureus BCRC 10780
[15] = system: Streptococcus pneumoniae BCRC 10794
[16] = system: Pseudomonas aeruginosa ATCC 21625
[17] = system: Pseudomonas aeruginosa LCCI
[18] = system: Escherichia coli UB1005
[19] = system: Pseudomonas aeruginosa ATCC 10419
[20] = system: Pseudomonas aeruginosa LCGE
[21] = system: Staphylococcus aureus ATCC 29213
[22] = system: Pseudomonas aeruginosa LCCE
[23] = system: Salmonella enterica subsp. enterica serovar Typhimurium C77-31
[24] = system: Pseudomonas aeruginosa ATCC 21630
[25] = system: Staphylococcus epidermidis ATCC 12228
[26] = system: Pseudomonas aeruginosa LC
[27] = system: Staphylococcus aureus ATCC 25023
[28] = system: Staphylococcus aureus ATCC 29313
[29] = system: Xanthomonas axonopodis pv. glycines ISBF 327
[30] = system: Enterococcus faecalis CGMCC 1.595
[31] = system: Pseudomonas aeruginosa 0108
[32] = system: Escherichia coli AS1.349
[33] = system: Bacillus cereus AS1.126
[34] = system: Klebsiella pneumoniae subsp. pneumoniae CGMCC 1.176
[35] = system: Staphylococcus epidermidis CICC 23664
[36] = system: Proteus mirabilis CICC 22931
[37] = system: Enterococcus faecium CGMCC 1.2334
[38] = system: Staphylococcus aureus AS1.72
[39] = system: Enterobacter cloacae CGMCC 1.58
[40] = system: Staphylococcus epidermidis
[41] = system: Pseudomonas aeruginosa CGMCC 1.860

MIC [1]: 26.5 µM (≈ 40 µg/mL) | MIC [2]: 39.8 µM (≈ 60 µg/mL) | MIC [3]: 26.5 µM (≈ 40 µg/mL) | MIC [4]: 16.6 µM (≈ 25 µg/mL) | MIC [5]: 19.9 µM (≈ 30 µg/mL)
SMILES: CSCC[C@H](NC(=O)[C@H](CCCCN)NC(=O)[C@H](CCCCN)NC(=O)[C@H](CC(N)=O)NC(=O)[C@H](CCCN=C(N)N)NC(=O)[C@H](CS)NC(=O)[C@H](CCCCN)NC(=O)[C@@H](N)CCCCN)C(=O)N[C@@H](CCC(=O)O)C(=O)N[C@H](C(=O)N[C@@H](CO)C(=O)N[C@@H](CCCN=C(N)N)C(N)=O)C(C)C [KKCRNKKMEVSR]

MIC [6]: 14.1 µM (≈ 45.4 µg/mL) | MIC [7]: 8.66 µM (≈ 27.8 µg/mL) | MIC [8]: 14.1 µM (≈ 45.4 µg/mL)
SMILES: CC[C@H](C)[C@H](NC(=O)[C@H](CCCCN)NC(=O)[C@H](CCCCN)NC(=O)[C@H](Cc1ccccc1)NC(=O)[C@H](CC(C)C)NC(=O)[C@H](CCCCN)NC(=O)[C@H](CCCCN)NC(=O)[C@H](C)NC(=O)[C@@H]1CCCN1C(=O)CNC(=O)[C@H](C)NC(=O)[C@H](CC(C)C)NC(=O)[C@H](Cc1ccc(O)cc1)NC(=O)[C@H](CCCCN)NC(=O)[C@H](CC(C)C)NC(=O)[C@@H](NC(=O)[C@H](CCCCN)NC(=O)[C@H](CCCCN)NC(=O)[C@H](Cc1ccccc1)NC(=O)[C@H](CC(C)C)NC(=O)[C@H](CCCCN)NC(=O)[C@H](CCCCN)NC(=O)[C@@H](N)CO)[C@@H](C)CC)C(=O)N[C@@H](CC(C)C)C(=O)N[C@@H](CCCCN)C(=O)N[C@@H](Cc1ccc(O)cc1)C(=O)N[C@@H](CC(C)C)C(=O)O [SKKLFKKILKYLAGPAKKLFKKILKYL]

MIC [2]: 200 µM (≈ 465 µg/mL) | MIC [9]: ≥ 100 µM | MIC [10]: 100 µM (≈ 232 µg/mL) | MIC [11]: 100 µM (≈ 232 µg/mL) | MIC [12]: ≥ 50 µM | MIC [4]: 50 µM (≈ 116 µg/mL) | MIC [13]: > 200 µM | MIC [5]: ≥ 200 µM
SMILES: CC[C@H](C)[C@H](NC(=O)[C@@H]1CCCN1C(=O)[C@H](CC(C)C)NC(=O)[C@@H](N)CC(C)C)C(=O)N[C@H](C(=O)NCC(=O)N[C@@H](CC(N)=O)C(=O)N[C@@H](CC(C)C)C(=O)N[C@@H](CC(C)C)C(=O)N[C@@H](CCCCN)C(=O)N[C@@H](CO)C(=O)N[C@@H](CC(C)C)C(=O)N[C@@H](CC(C)C)C(=O)NCC(=O)N[C@@H](Cc1c[nH]c2ccccc12)C(=O)N[C@@H](CCCCN)C(=O)N[C@@H](CCCN=C(N)N)C(=O)N[C@@H](CCCCN)C(=O)N[C@@H](C)C(=O)N[C@@H](Cc1ccccc1)C(=O)NCC(N)=O)C(C)C [LLPIVGNLLKSLLGWKRKAFG]

MIC [14]: ≥ 92.4 µM | MIC [15]: ≥ 92.4 µM
SMILES: CC[C@H](C)[C@H](NC(=O)[C@H](CCSC)NC(C)=O)C(=O)N[C@@H](Cc1cnc[nH]1)C(=O)NCC(=O)N[C@@H](CC(C)C)C(=O)N[C@H](C(=O)N[C@H](C(=O)N[C@@H](CCCN=C(N)N)C(=O)N[C@@H](CCCN=C(N)N)C(N)=O)[C@@H](C)O)C(C)C [MIHGLVTRR]

MIC [2]: 256 µM (≈ 559 µg/mL) | MIC [16]: ≥ 256 µM | MIC [17]: ≥ 256 µM | MIC [18]: ≥ 128 µM | MIC [10]: 128 µM (≈ 279 µg/mL) | MIC [19]: ≥ 256 µM | MIC [3]: 128 µM (≈ 279 µg/mL) | MIC [20]: ≥ 256 µM | MIC [21]: 128 µM (≈ 279 µg/mL) | MIC [22]: ≥ 256 µM | MIC [23]: ≥ 128 µM | MIC [24]: ≥ 256 µM | MIC [25]: 32 µM (≈ 69.8 µg/mL) | MIC [26]: ≥ 32 µM
SMILES: CC[C@H](C)[C@H](NC(=O)[C@H](CCCCN)NC(=O)[C@H](CCCCN)NC(=O)[C@H](CC(C)C)NC(=O)[C@H](CCCN=C(N)N)NC(=O)[C@H](CCCCN)NC(=O)[C@H](CCCN=C(N)N)NC(=O)[C@@H](NC(=O)[C@H](CCCCN)NC(=O)[C@H](CCCCN)NC(=O)[C@H](CCCN=C(N)N)NC(=O)[C@H](CC(C)C)NC(=O)[C@H](CCCN=C(N)N)NC(=O)[C@H](CCCN=C(N)N)NC(=O)[C@H](Cc1ccccc1)NC(=O)[C@@H](N)CCCN=C(N)N)[C@@H](C)O)C(N)=O [RFRRLRKKTRKRLKKI]

MIC [27]: 6.4 µM (≈ 7.99 µg/mL)
SMILES: CC(C)C[C@H](NC(=O)[C@H](CCCN=C(N)N)NC(=O)[C@H](CC(C)C)NC(=O)[C@H](CC(C)C)NC(=O)[C@H](CC(C)C)NC(=O)[C@H](CC(C)C)NC(=O)[C@H](CC(C)C)NC(=O)[C@H](CCCCN)NC(=O)[C@H](CC(C)C)NC(=O)[C@@H](N)CCCN=C(N)N)C(N)=O [RLKLLLLLRL]

MIC [2]: 50 µM (≈ 127 µg/mL) | MIC [3]: 6 µM (≈ 15.2 µg/mL) | MIC [29]: 2 µM (≈ 5.08 µg/mL)
SMILES: CC[C@H](C)[C@H](NC(=O)[C@@H](NC(=O)[C@H](CCCCN)NC(=O)[C@H](CCCCN)NC(=O)[C@H](CC(C)C)NC(=O)[C@@H](NC(=O)[C@H](CC(N)=O)NC(=O)[C@H](CC(C)C)NC(=O)CN)[C@@H](C)O)C(C)C)C(=O)N[C@@H](CCC(N)=O)C(=O)NCC(=O)N[C@@H](CC(C)C)C(=O)N[C@@H](Cc1cnc[nH]1)C(=O)N[C@@H](CCC(=O)O)C(=O)N[C@H](C(=O)N[C@H](C(=O)N[C@@H](CCCCN)C(=O)N[C@@H](CC(C)C)C(=O)N[C@H](C(=O)N[C@@H](CC(N)=O)C(=O)N[C@@H](CC(N)=O)C(=O)N[C@@H](Cc1cnc[nH]1)C(=O)N[C@@H](C)C(N)=O)C(C)C)[C@@H](C)CC)C(C)C [GLNTLKKVIQGLHEVIKLVNNHA]
MIC [28]: 6 µM (≈ 15.2 µg/mL)

MIC [30]: 0.78 µM (≈ 1.32 µg/mL) | MIC [31]: 12.5 µM (≈ 21.2 µg/mL) | MIC [32]: 3.13 µM (≈ 5.32 µg/mL) | MIC [33]: 3.13 µM (≈ 5.32 µg/mL) | MIC [34]: 25 µM (≈ 42.5 µg/mL) | MIC [35]: 1.56 µM (≈ 2.65 µg/mL) | MIC [36]: 6.25 µM (≈ 10.6 µg/mL) | MIC [37]: 1.56 µM (≈ 2.65 µg/mL) | MIC [38]: 1.56 µM (≈ 2.65 µg/mL) | MIC [39]: 0.78 µM (≈ 1.32 µg/mL) | MIC [40]: 3.12 µM (≈ 5.3 µg/mL) | MIC [41]: 3.13 µM (≈ 5.32 µg/mL)
SMILES: CC[C@H](C)[C@H](N)C(=O)N[C@@H](CCCCN)C(=O)N[C@@H](CCCCN)C(=O)N[C@@H](Cc1c[nH]c2ccccc12)C(=O)N[C@@H](Cc1c[nH]c2ccccc12)C(=O)N[C@@H](CO)C(=O)N[C@@H](CCCCN)C(=O)N[C@H](C(=O)N[C@@H](CCCCN)C(=O)N[C@@H](CCCCN)C(=O)N[C@@H](CC(C)C)C(=O)N[C@@H](CC(C)C)C(=O)N[C@@H](CCCCN)C(N)=O)[C@@H](C)CC [IKKWWSKIKKLLK]
